Experimental data from US10548864B2, “Enhanced ATRA-related compounds for the treatment of proliferative diseases, autoimmune diseases, and addiction conditions” (Beth Israel Deaconess Medical Center, Inc., priority 2015, dated 2020).
Values belong to the molecule of their own block, whether it stands above or below them.

Legend:
[1] = biological target: T1, GST-Pin1 (Homo sapiens, UniProt Q13526); experiment: Fluorescence polarization pTide competition assay (FP-HTS / FP assay)
Source text: Measurements of fluorescence polarization and fluorescence absorbance were made in black 384-well plates (Corning) using a Synergy II plate reader. […] The assay can tolerate up to 10% DMSO.
Molecules that compete with pTide for binding to the active site, e.g., Pin1 substrates, were detected under equilibrium conditions. A Z score was used to identify and rank those molecules that were most competitive with pTide (e.g., that have higher binding affinity). A Z score is defined as Z=(x−μ)/σ, where x is a raw score, μ is the mean of the population, and σ is the standard deviation of the population. Molecules with the most negative Z scores represent those with the highest Pin1 binding affinity. The Z′ value for this assay was around 0.70 and was consistent for day-to-day performance, with a coefficient of variation in the range of 4-5%.

[2] = test system: RAR; experiment: Transactivation of RAR downstream target genes
[3] = biological target: GST-FKBP12 (Homo sapiens, UniProt P62942); experiment: Chymotrypsin coupled PPIase activity assay; assay type: biochemical
Chain of GST-FKBP12 (P62942 whole entry): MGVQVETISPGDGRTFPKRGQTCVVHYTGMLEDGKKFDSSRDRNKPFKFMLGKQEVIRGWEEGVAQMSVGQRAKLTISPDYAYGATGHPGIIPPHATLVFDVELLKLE
Method: (§1) Compounds were preincubated with enzymes for 0.5 to 2 hours at 4° C. Ki values obtained from PPIase assays are derived from the Cheng-Prusoff equation:
(§2) [formula] where Km is the Michaelis constant for the used substrate, S is the initial concentration of the substrate in the assay, and the IC50 value is of the inhibitor. Cell Growth Assays

[4] = biological target: T1, GST-Pin1; experiment: Chymotrypsin coupled PPIase activity assay; assay type: biochemical
Method: as §1, §2

[5] = test system: GST-cyclophilin; experiment: Chymotrypsin coupled PPIase activity assay; assay type: biochemical
Method: Compounds were preincubated with enzymes for 0.5 to 2 hours at 4° C. Ki values obtained from PPIase assays are derived from the Cheng-Prusoff equation: [formula] where Km is the Michaelis constant for the used substrate, S is the initial concentration of the substrate in the assay, and the IC50 value is of the inhibitor. Cell Growth Assays

[6] = test system: human APL NB4 cells; experiment: Immunoblot of Pin1 and PML-RARα in APL NB4 cells; assay type: cell-based; details: for PML-RARα level: APL cells; for PML-RARα level / Pin1 degradation: 72 hours
[7] = test system: NB4 cells; experiment: APL cell differentiation (Giemsa staining, FACS with CD14 and CD11b); assay type: cell-based, human; details: 72 hours
Source text: The latter result could be attributed to the stabilization of RAR protein upon Pin1 KD.

[8] = test system: APL cells from hCG-PML-RARα transgenic mice; details: APL mouse model
[9] = biological target: T2, Pin1 (Mus musculus, UniProt Q9QUR7); experiment: Pin1 level, mRNA and stability in MEFs (immunoblot, RT-PCR, CHX chase); assay type: cell-based
T2 construct: endogenous in cells; host or cells: mouse embryonic fibroblasts (MEFs)
T2 sequence (Q9QUR7 whole entry): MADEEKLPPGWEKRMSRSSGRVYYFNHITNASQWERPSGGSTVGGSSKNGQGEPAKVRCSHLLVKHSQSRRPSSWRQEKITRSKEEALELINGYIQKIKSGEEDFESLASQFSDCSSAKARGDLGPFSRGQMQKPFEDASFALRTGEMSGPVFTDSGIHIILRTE
Method: RNA from cells was extracted with the Total RNA isolation mini kit (Agilent). cDNA was prepared with transcriptor first strand cDNA synthesis kit (Roche) and PCR was carried out with iQ SYBR Green Supermix (Bio-Rad). Samples were run on the QIAGEN Rotor-Gene Q real-time cycler. GAPDH was used as an internal control. Analysis was performed with the delta-delta ct method. The following primers were used: […]

[10] = test system: human normal and breast cancer cell lines; experiment: Cell growth of human normal and breast cancer cell lines; assay type: cell-based
Method: Absorbance was determined at 570 nm.
To test this possibility, we chose breast cancer as a model due to the substantial oncogenic role of Pin1 in vitro and in vivo.

[11] = in humans; cited from earlier work
[12] = test system: human APL NB4 cells; experiment: NB4 cell growth
Method: (§3) For cell growth assays described below, cells were seeded in a density of 3000 cells per well in 96-well flat-bottomed plates, and incubated for 24 h in 10% FBS-supplemented DMEM culture medium. […] Control cells received DMSO at a concentration equal to that in drug-treated cells. After 72 hours, the number of cells was counted after trypsin digestion, or medium containing 0.5 mg/ml 3-(4,5-dimethylthiazol-2-yl)-2,5-diphenyl-2H-tetrazolium bromide was added to each well for 2 hours of incubation at 37° C., followed by removal of the media before the addition of 200 μl DMSO. Absorbance was determined at 570 nm.

[13] = test system: MRL/lpr lupus prone mice; experiment: MRL/lpr lupus prone mice
[14] = test system: MDA-MB-231 cells; experiment: MDA-MB-231 xenograft in nude mice
Method: Tumor sizes were measured weekly and mice were sacrificed after 7 weeks to collect tumor tissues (37A). […] Pin1 and cyclin D1 in xenograft tumors were assayed by IB (37C).
Tumor sizes were measured weekly and mice were sacrificed after 7 weeks to collect tumor tissues (37G).
Tumor sizes were recorded weekly by a caliber for up to 8 weeks and tumor volumes were calculated using the formula L×W^2×0.52, where L and W represent length and width, respectively.
(§4) In pilot experiments, MDA-MB-231 cells were subcutaneously injected into female nude mice in the flank.

[15] = test system: MDA-MB-468 cells; experiment: MDA-MB-468 xenograft in nude mice
Method: Tumor sizes were measured weekly and mice were sacrificed after 7 weeks to collect tumor tissues (37D). […] Pin1 and cyclin D1 in xenograft tumors were assayed by IB (37F).
as §4

[16] = test system: mouse embryonic fibroblasts (MEFs); experiment: Cell growth assay in Pin1 WT and Pin1 KO MEFs
Method: as §3

[17] = test system: SKBR3 cells; experiment: Foci formation assay upon Pin1 overexpression
[18] = test system: NIH 3T3 cells; experiment: Centrosome amplification induced by Pin1 overexpression; details: 72 hours
[19] = test system: cyclin D1 promoter; experiment: Cyclin D1 promoter luciferase activity upon Pin1 overexpression; details: 72 hours
[20] = test system: Pin1 and PML-RARα; experiment: Pin1 and PML-RARα immunostaining in bone marrow of APL patients treated with ATRA
Method: Tissue samples were washed with PBS and fixed with 4% paraformaldehyde at room temperature for 20 minutes, followed by permeabilization and blocking with PBS containing 0.1% Triton X-100 and 5% FBS for 1 hour. After another wash with PBS, immunostaining was performed by incubating the cells with mouse anti-Pin1 (1:1000), or rabbit anti-PML (Santa Cruz; 1:100) primary antibodies at 4° C. overnight. Primary antibodies were diluted in PBS containing 0.1% Triton X-100, 0.2% BSA, 0.5 mM PMSF, and 1 mM dithiothreitol. […] Samples were nuclear counterstained with 4,6-diamidino-2-phenylindole (DAPI), mounted and visualized with a LSM510 confocal imaging system.
Bone marrow aspirates were obtained with informed consent from the iliac crest of patients in whom the diagnosis of acute promyelocytic leukemia was suspected based on the morphological evaluation of peripheral blood smear. […] Samples tested positive for the PML/RARα rearrangement by RT-PCR.

[21] = test system: Pin1; experiment: Immunoblot of Pin1 and its substrate oncogenes and tumor suppressors in breast cells
Method: For immunoprecipitation and immunoblotting in the examples below, cells were polyethylenimine (PEI)- or lipofemamine-transfected with 8 μg of various plasmids, incubated in 10 cm dishes for 24 hours, and subsequently treatment with drugs as needed. […] After centrifugation at 13,000 g for 10 minutes, one tenth of the supernatant was stored as input, and the remainder was incubated 12 hours with M2 Flag agarose (Sigma). After brief centrifugation, immunoprecipitates were collected, extensively washed with the aforementioned lysis buffer twice, suspended in 2×SDS sample buffer (100 mM Tris-HCl, pH 6.8, 4% SDS, 5% β-mercaptoethanol, 20% glycerol, and 0.1% bromphenol blue), boiled for 10 minutes, and subjected to immunoblotting analysis. […] After electrophoresis, gel was transferred to nitrocellulose membranes using a semidry transfer cell. The transblotted membrane was washed twice with Tris-buffered saline containing 0.1% Tween 20 (TBST). After blocking with TBST containing 5% bovine serum albumin (BSA) for 1 hour, the membrane was incubated with the appropriate primary antibody (diluted 1:1000) in 2% BSA-containing TBST at 4° C. overnight. After incubation with the primary antibody, the membrane was washed three times with TBST for a total of 30 minutes followed by incubation with horseradish peroxidase (HRP)-conjugated goat anti-rabbit or anti-mouse IgG (diluted 1:2500) for 1 hour at room temperature. After three extensive washes with TBST for a total of 30 minutes, the immunoblots were visualized by enhanced chemiluminescence.

[22] = 5 or 10 mg 21 day ATRA-releasing pellets, 1 week after inoculation
[23] = after 10 days of ATRA treatment
[24] = three sensitive cancer cell lines, 72 hours

T1 sequence (Q13526 whole entry): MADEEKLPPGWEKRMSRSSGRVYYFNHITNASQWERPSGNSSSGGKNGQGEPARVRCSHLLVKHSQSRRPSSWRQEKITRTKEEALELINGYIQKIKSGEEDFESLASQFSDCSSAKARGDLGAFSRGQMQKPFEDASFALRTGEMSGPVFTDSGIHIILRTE

Structure (SMILES): CC1=C(/C=C/C(C)=C/C=C/C(C)=C/C=O)C(C)(C)CCC1 [retinal]
- Pin1 binding in the FP assay [1]: totally inactive

Structure (SMILES): CC1=C(/C=C/C(C)=C/C=C/C(C)=C\C(=O)O)C(C)(C)CCC1 [Compound 13cRA, 13-cis-retinoic acid]
- Inhibition of FKBP12 [3]: did not inhibit
- Inhibition of the PPIase activity of Pin1 [4]: fully inhibited
- Inhibition of cyclophilin [5]: did not inhibit
- Z score in FP-HTS ([1]; ~8200 compounds screened): lowest Z score

Structure (SMILES): O=C(O[C@@H]1Cc2c(O)cc(O)cc2O[C@@H]1c1cc(O)c(O)c(O)c1)c1cc(O)c(O)c(O)c1 [EGCG]
- PML-RARα level [6]: dose-dependently reduced PML-RARα
- Pin1 degradation ([6]; NB4 cells): inhibited Pin1 without degrading it
- APL cell differentiation [7]: neither Pin1 inhibitors nor Pin1 KD induced APL cell differentiation
- Condition of treated mice (toxic effects) [8]: rather sick
- PML-RARα in the bone marrow [8]: effectively reduced PML-RARα in the bone marrow
- Spleen weight [8]: spleen weights nearly at basal levels

Structure (SMILES): Clc1cccc(C(c2ccc3[nH]cnc3c2)n2ccnc2)c1 (centres unmarked) [liarazole]
- Inhibition of cell proliferation in combination with ATRA ([10]; AU565 or SKBR3 cells, cytochrome P450 inhibitor plus ATRA): generally additive effects

Structure (SMILES): COc1cc(C)c(/C=C/C(C)=C/C=C/C(C)=C/C(=O)O)c(C)c1C [acitretin]
- Pin1 binding in the FP assay [1]: moderate binding

Structure (SMILES): CCOC(=O)CN1C(=O)c2ccc3c4c(ccc(c24)C1=O)C(=O)N(CC(=O)OCC)C3=O [PiB]
- PML-RARα level [6]: dose-dependently reduced PML-RARα
- Pin1 degradation ([6]; NB4 cells): inhibited Pin1 without degrading it
- APL cell differentiation [7]: neither Pin1 inhibitors nor Pin1 KD induced APL cell differentiation

Structure (SMILES): CC1=C(/C=C/C(C)=C/C=C/C(C)=C/CO)C(C)(C)CCC1 [retinol]
- Pin1 binding in the FP assay [1]: totally inactive

Structure (SMILES): O=C(O)Cc1c[nH]c2ccccc12 [indo-3-acetic acid]
- Pin1 binding in the FP assay [1]: neither pravastatin nor indo-3-acetic acid demonstrated any binding

Structure (SMILES): CC(=O)OC/C=C(C)/C=C/C=C(C)/C=C/C1=C(C)CCCC1(C)C [retinyl acetate]
- Pin1 binding in the FP assay [1]: totally inactive

Further lines, with some results ahead:

- Pin1 binding in the FP assay [1]: minimal Pin1 binding
Structure (SMILES): CCCCCCCOc1cc2c(cc1/C(C)=C/c1ccc(C(=O)O)cc1)C(C)(C)CCS2(=O)=O [Ro-415253]
- Transactivation of RAR downstream target genes (RARβ, TGM2) [2]: suppresses it

- Pin1 binding in the FP assay [1]: moderate binding
Structure (SMILES): CC1(C)CCC(C)(C)c2cc(NC(=O)c3ccc(C(=O)O)cc3)ccc21 [tamibarotene]

- Inhibition of FKBP12 [3]: did not inhibit
- Inhibition of the PPIase activity of Pin1 [4]: fully inhibited
- Inhibition of cyclophilin [5]: did not inhibit
- Pin1 protein level ([9]; MEFs, immunoblot): dose-dependently down-regulated Pin1
- Pin1 mRNA levels ([9]; MEFs, quantitative RT-PCR): no obvious effects
- Activation of the cyclin D1 promoter by Pin1 overexpression [19]: dose-dependently and fully inhibited
Structure (SMILES): CC1=C(/C=C/C(C)=C/C=C/C(C)=C/C(=O)O)C(C)(C)CCC1 [ATRA, all-trans retinoic acid]
- Degradation of PML-RARα and Pin1 ([9]; RARα, β, and γ triple KO MEFs): induced degradation of PML-RARα and Pin1 similar to that for WT controls
- PML-RARα level [6]: dose-dependently reduced PML-RARα
- Pin1 and PML-RARα expression ([6]; NB4 cells, 10 μM for 96 hours): reduced Pin1 and PML-RARα expression
- PML-RARα in the bone marrow [8]: effectively reduced PML-RARα in the bone marrow
- Pin1 levels in the bone marrow [8]: reduced Pin1 levels in the bone marrow
- Spleen weight [8]: spleen weights nearly at basal levels
- Cell growth, malignant breast cancer cells ([10]; 72 hours): differential susceptibility
- Cell growth, non-transformed MCF10A and HMLE cells ([10]; 72 hours): highly resistant
- Half-life [11]: ~45 min
- NB4 cell proliferation [12]: suppressed
- Visual lupus-related phenotypes (fur loss, skin inflammation, lymphoid hyperplasia) ([13]; 5 mg ATRA for 8 weeks from 8 weeks of age): drastically suppressed visual lupus-related phenotypes in all six treated mice
- Size of spleen and lymph node ([13]; 14 week-old ATRA-treated mouse): normal size
- Glomerular deposition of IgG, C3, and CD68 ([13]; mouse, in vivo): potently inhibited
- Hyperkeratinosis ([13]; mouse, in vivo): potently inhibited
- Tumor growth [14, 22]: potently and dose-dependently inhibited tumor growth
- Endogenous and exogenous Pin1 and cyclin D1 in tumors of Pin1-expressing MDA-MB-231 cells ([14]; ATRA implants): dose-dependently reduced both endogenous and exogenous Pin1, and cyclin D1
- Tumor growth, MDA-MB-231 cells stably expressing Pin1 ([14]; ATRA implants): effectively inhibited by ATRA in a dose-dependent manner
- Pin1 and cyclin D1 in tumors ([14]; ATRA-releasing pellets): reduced both Pin1 and its substrate cyclin D1
- Antitumor activity ([14]; intraperitoneally 3 times a week for 8 weeks (12.5 mg/kg)): only modest antitumor activity
- Tumor growth [15, 22]: potently and dose-dependently inhibited tumor growth
- Pin1 and cyclin D1 in tumors ([15]; ATRA-releasing pellets): reduced both Pin1 and its substrate cyclin D1
- Inhibition of growth of Pin1 WT MEFs ([16]; Pin1 WT MEFs): relatively high concentrations of ATRA were required
- Inhibition of growth of Pin1 KO MEFs ([16]; Pin1 knockout (KO) cells): much more resistant
- Foci formation enhanced by Pin1 overexpression [17]: dose-dependently and fully inhibited
- Transactivation of RAR downstream target genes (RARβ, TGM2) [2]: effectively and significantly induces transactivation
- Centrosome amplification induced by Pin1 overexpression [18]: dose-dependently and fully inhibited
- PML-RARα level in bone marrow of APL patients ([20]; after 3 days of ATRA treatment): ~40%
- Pin1 level in bone marrow of APL patients ([20]; after 3 days of ATRA treatment): ~40%
- PML-RARα level in bone marrow of APL patients [20, 23]: < 10%
- Pin1 level in bone marrow of APL patients [20, 23]: < 10%
- Effects on Pin1 and substrate proteins in normal MCF10A cells ([21]; MCF10A cells): no appreciable effects
- Protein levels of Pin1 and its substrate oncogenes (cyclin D1, HER2, ERa, Akt, NFκB/p65, c-Jun, PKM2) [21, 24]: dose-dependent protein reduction
- Protein levels of Pin1 substrate tumor suppressors (Smad2/3, SMRT) [21, 24]: protein induction

- Pin1 binding in the FP assay [1]: marginal binding
Structure (SMILES): C=C(c1ccc(C(=O)O)cc1)c1cc2c(cc1C)C(C)(C)CCC2(C)C [bexarotene]
